# Experimental data: EP0326329B1, “Quinazoline derivatives useful as insecticides” (Dow AgroSciences LLC, priority 1988, dated 1989)
# System: Erysiphe graminis tritici (powdery mildew)
# Assay: Greenhouse Test 1, foliar spray fungicide screen (POWD MDEW), host wheat
# Type: in vivo
# Conditions: disease control rating, 400 ppm (+++ at 100 ppm)
row,Compound,POWD MDEW
1,"CC(C)(C)c1ccc(CCOc2ncnc3cc(Cl)ccc23)cc1 [Example 136, 7-chloro-4-[2-[4-(1,1-dimethylethyl)phenyl]ethoxy]quinazoline]",- (- = 0-19% control at 400 ppm)
2,"c1ccc(Sc2cccc(CCOc3ncnc4ccccc34)c2)cc1 [Example 137, 4-[2-[3-(phenylthio)phenyl]ethoxy]quinazoline]",+++ (+++ = 90-100% control at 100 ppm)
3,"CC(C)(C)c1ccc(CCCOc2ncnc3ccccc23)cc1 [Example 138, 4-[3-[4-(1,1-dimethylethyl)phenyl]propoxy]quinazoline]",++ (++ = 90-100% control at 400 ppm)
4,"Cc1cccc2c(OCCc3ccc(C(C)(C)C)cc3)ncnc12 [Example 139, 8-methyl-4-[2-[4-(1,1-dimethylethyl)phenyl]ethoxy]quinazoline]",+ (+ = 20-89% control at 400 ppm)
5,"CC(C)(C)c1ccc(CCCNc2ncnc3ccc(Cl)cc23)cc1 [Example 140, 6-chloro-N-(3-[4-(1,1-dimethylethyl)phenyl]propyl]-4-quinazoline]",+ (+ = 20-89% control at 400 ppm)

# System: Pyricularia oryzae (rice blast)
# Assay: not given
# Type: in vivo
# Conditions: disease control rating, foliar spray, host rice; 400 ppm (+++ at 100 ppm)
row,Compound,RICE BLAST
1,"CC(C)(C)c1ccc(CCOc2ncnc3cc(Cl)ccc23)cc1 [Example 136, 7-chloro-4-[2-[4-(1,1-dimethylethyl)phenyl]ethoxy]quinazoline]",- (- = 0-19% control at 400 ppm)
2,"c1ccc(Sc2cccc(CCOc3ncnc4ccccc34)c2)cc1 [Example 137, 4-[2-[3-(phenylthio)phenyl]ethoxy]quinazoline]",+++ (+++ = 90-100% control at 100 ppm)
3,"CC(C)(C)c1ccc(CCCOc2ncnc3ccccc23)cc1 [Example 138, 4-[3-[4-(1,1-dimethylethyl)phenyl]propoxy]quinazoline]",+ (+ = 20-89% control at 400 ppm)
4,"Cc1cccc2c(OCCc3ccc(C(C)(C)C)cc3)ncnc12 [Example 139, 8-methyl-4-[2-[4-(1,1-dimethylethyl)phenyl]ethoxy]quinazoline]",+++ (+++ = 90-100% control at 100 ppm)
5,"CC(C)(C)c1ccc(CCCNc2ncnc3ccc(Cl)cc23)cc1 [Example 140, 6-chloro-N-(3-[4-(1,1-dimethylethyl)phenyl]propyl]-4-quinazoline]",++ (++ = 90-100% control at 400 ppm)

# System: Puccinia recondita tritici (leaf rust)
# Assay: Greenhouse Test 1, foliar spray fungicide screen (LEAF RUST), host wheat
# Type: in vivo
# Conditions: disease control rating, 400 ppm (+++ at 100 ppm)
row,Compound,LEAF RUST
1,"CC(C)(C)c1ccc(CCOc2ncnc3cc(Cl)ccc23)cc1 [Example 136, 7-chloro-4-[2-[4-(1,1-dimethylethyl)phenyl]ethoxy]quinazoline]",- (- = 0-19% control at 400 ppm)
2,"c1ccc(Sc2cccc(CCOc3ncnc4ccccc34)c2)cc1 [Example 137, 4-[2-[3-(phenylthio)phenyl]ethoxy]quinazoline]",+++ (+++ = 90-100% control at 100 ppm)
3,"CC(C)(C)c1ccc(CCCOc2ncnc3ccccc23)cc1 [Example 138, 4-[3-[4-(1,1-dimethylethyl)phenyl]propoxy]quinazoline]",- (- = 0-19% control at 400 ppm)
4,"Cc1cccc2c(OCCc3ccc(C(C)(C)C)cc3)ncnc12 [Example 139, 8-methyl-4-[2-[4-(1,1-dimethylethyl)phenyl]ethoxy]quinazoline]",+ (+ = 20-89% control at 400 ppm)
5,"CC(C)(C)c1ccc(CCCNc2ncnc3ccc(Cl)cc23)cc1 [Example 140, 6-chloro-N-(3-[4-(1,1-dimethylethyl)phenyl]propyl]-4-quinazoline]",+ (+ = 20-89% control at 400 ppm)

# System: Botrytis cinerea (gray mold)
# Assay: Greenhouse Test 1, foliar spray fungicide screen (GRAY MOLD), host grape berries
# Type: in vivo
# Conditions: disease control rating, 400 ppm (+++ at 100 ppm)
row,Compound,GRAY MOLD
1,"CC(C)(C)c1ccc(CCOc2ncnc3cc(Cl)ccc23)cc1 [Example 136, 7-chloro-4-[2-[4-(1,1-dimethylethyl)phenyl]ethoxy]quinazoline]",- (- = 0-19% control at 400 ppm)
2,"c1ccc(Sc2cccc(CCOc3ncnc4ccccc34)c2)cc1 [Example 137, 4-[2-[3-(phenylthio)phenyl]ethoxy]quinazoline]",- (- = 0-19% control at 400 ppm)
3,"CC(C)(C)c1ccc(CCCOc2ncnc3ccccc23)cc1 [Example 138, 4-[3-[4-(1,1-dimethylethyl)phenyl]propoxy]quinazoline]",- (- = 0-19% control at 400 ppm)
4,"Cc1cccc2c(OCCc3ccc(C(C)(C)C)cc3)ncnc12 [Example 139, 8-methyl-4-[2-[4-(1,1-dimethylethyl)phenyl]ethoxy]quinazoline]",- (- = 0-19% control at 400 ppm)
5,"CC(C)(C)c1ccc(CCCNc2ncnc3ccc(Cl)cc23)cc1 [Example 140, 6-chloro-N-(3-[4-(1,1-dimethylethyl)phenyl]propyl]-4-quinazoline]",- (- = 0-19% control at 400 ppm)

# System: Pseudoperonospora cubensis (downy mildew)
# Assay: Greenhouse Test 1, foliar spray fungicide screen (DOWN MDEW), host squash
# Type: in vivo
# Conditions: disease control rating, 400 ppm (+++ at 100 ppm)
row,Compound,DOWN MDEW
1,"CC(C)(C)c1ccc(CCOc2ncnc3cc(Cl)ccc23)cc1 [Example 136, 7-chloro-4-[2-[4-(1,1-dimethylethyl)phenyl]ethoxy]quinazoline]",- (- = 0-19% control at 400 ppm)
2,"c1ccc(Sc2cccc(CCOc3ncnc4ccccc34)c2)cc1 [Example 137, 4-[2-[3-(phenylthio)phenyl]ethoxy]quinazoline]",+++ (+++ = 90-100% control at 100 ppm)
3,"CC(C)(C)c1ccc(CCCOc2ncnc3ccccc23)cc1 [Example 138, 4-[3-[4-(1,1-dimethylethyl)phenyl]propoxy]quinazoline]",++ (++ = 90-100% control at 400 ppm)
4,"Cc1cccc2c(OCCc3ccc(C(C)(C)C)cc3)ncnc12 [Example 139, 8-methyl-4-[2-[4-(1,1-dimethylethyl)phenyl]ethoxy]quinazoline]",++ (++ = 90-100% control at 400 ppm)
5,"CC(C)(C)c1ccc(CCCNc2ncnc3ccc(Cl)cc23)cc1 [Example 140, 6-chloro-N-(3-[4-(1,1-dimethylethyl)phenyl]propyl]-4-quinazoline]",++ (++ = 90-100% control at 400 ppm)

# System: Southern corn rootworm (Diabrotica undecimpuctata howardi Barber)
# Assay: Mite/insect screen, soil treatment (CRW)
# Type: in vivo
# Conditions: Diabrotica; percent mortality; soil treatment, CRW rate 12.00 ppm; read-out: CRW RESULTS %
# Outline: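 Five 2–3 instar larvae were placed on dry sandy soil with a presoaked corn seed after the soil had received 1 mL of compound solution and dried 6–12 h; cups were kept capped at 23°C. Mortality (%) and phytotoxicity were read after standard exposure. Formulation: acetone/alcohol with emulsifiers, water-diluted.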
row,Compound,mortality at 12 ppm [%]
1,"CC(C)(C)c1ccc(CCOc2ncnc3cc(Cl)ccc23)cc1 [Example 136, 7-chloro-4-[2-[4-(1,1-dimethylethyl)phenyl]ethoxy]quinazoline]",0
2,"c1ccc(Sc2cccc(CCOc3ncnc4ccccc34)c2)cc1 [Example 137, 4-[2-[3-(phenylthio)phenyl]ethoxy]quinazoline]",0
3,"CC(C)(C)c1ccc(CCCOc2ncnc3ccccc23)cc1 [Example 138, 4-[3-[4-(1,1-dimethylethyl)phenyl]propoxy]quinazoline]",0
4,"Cc1cccc2c(OCCc3ccc(C(C)(C)C)cc3)ncnc12 [Example 139, 8-methyl-4-[2-[4-(1,1-dimethylethyl)phenyl]ethoxy]quinazoline]",0
5,"CC(C)(C)c1ccc(CCCNc2ncnc3ccc(Cl)cc23)cc1 [Example 140, 6-chloro-N-(3-[4-(1,1-dimethylethyl)phenyl]propyl]-4-quinazoline]",0

# Same assay, conditions: Diabrotica; percent mortality; soil treatment, CRW rate 24.00 ppm; read-out: CRW RESULTS %
row,Compound,mortality at 24 ppm [%]
1,"CC(C)(C)c1ccc(CCOc2ncnc3cc(Cl)ccc23)cc1 [Example 136, 7-chloro-4-[2-[4-(1,1-dimethylethyl)phenyl]ethoxy]quinazoline]",0
2,"c1ccc(Sc2cccc(CCOc3ncnc4ccccc34)c2)cc1 [Example 137, 4-[2-[3-(phenylthio)phenyl]ethoxy]quinazoline]",100
3,"CC(C)(C)c1ccc(CCCOc2ncnc3ccccc23)cc1 [Example 138, 4-[3-[4-(1,1-dimethylethyl)phenyl]propoxy]quinazoline]",0
4,"Cc1cccc2c(OCCc3ccc(C(C)(C)C)cc3)ncnc12 [Example 139, 8-methyl-4-[2-[4-(1,1-dimethylethyl)phenyl]ethoxy]quinazoline]",0
5,"CC(C)(C)c1ccc(CCCNc2ncnc3ccc(Cl)cc23)cc1 [Example 140, 6-chloro-N-(3-[4-(1,1-dimethylethyl)phenyl]propyl]-4-quinazoline]",0

# System: southern armyworm (Spodopetra eridania Cramer)
# Assay: Mite/insect screen, sprayed squash leaves (SAW)
# Type: in vivo
# Conditions: Spodoptera eridania, percent mortality; spray rate 200 ppm; read-out: SAW RESULTS %
# Outline: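 Steps: formulate compound in acetone/alcohol 50:50 carrying emulsifiers; dilute with water; spray leaves until runoff on upper and lower surfaces; air-dry one hour; for armyworm, excise two […] leaves into a dish of larvae; after exposure, score mortality and plant injury.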
row,Compound,mortality at 200 ppm [%]
1,"CC(C)(C)c1ccc(CCOc2ncnc3cc(Cl)ccc23)cc1 [Example 136, 7-chloro-4-[2-[4-(1,1-dimethylethyl)phenyl]ethoxy]quinazoline]",100
2,"c1ccc(Sc2cccc(CCOc3ncnc4ccccc34)c2)cc1 [Example 137, 4-[2-[3-(phenylthio)phenyl]ethoxy]quinazoline]",0
3,"CC(C)(C)c1ccc(CCCOc2ncnc3ccccc23)cc1 [Example 138, 4-[3-[4-(1,1-dimethylethyl)phenyl]propoxy]quinazoline]",0
4,"Cc1cccc2c(OCCc3ccc(C(C)(C)C)cc3)ncnc12 [Example 139, 8-methyl-4-[2-[4-(1,1-dimethylethyl)phenyl]ethoxy]quinazoline]",0
5,"CC(C)(C)c1ccc(CCCNc2ncnc3ccc(Cl)cc23)cc1 [Example 140, 6-chloro-N-(3-[4-(1,1-dimethylethyl)phenyl]propyl]-4-quinazoline]",0

# Same assay, conditions: Spodoptera eridania, percent mortality; spray rate 400 ppm; read-out: SAW RESULTS %
row,Compound,mortality at 400 ppm [%]
1,"CC(C)(C)c1ccc(CCOc2ncnc3cc(Cl)ccc23)cc1 [Example 136, 7-chloro-4-[2-[4-(1,1-dimethylethyl)phenyl]ethoxy]quinazoline]",0
2,"c1ccc(Sc2cccc(CCOc3ncnc4ccccc34)c2)cc1 [Example 137, 4-[2-[3-(phenylthio)phenyl]ethoxy]quinazoline]",0
3,"CC(C)(C)c1ccc(CCCOc2ncnc3ccccc23)cc1 [Example 138, 4-[3-[4-(1,1-dimethylethyl)phenyl]propoxy]quinazoline]",0
4,"Cc1cccc2c(OCCc3ccc(C(C)(C)C)cc3)ncnc12 [Example 139, 8-methyl-4-[2-[4-(1,1-dimethylethyl)phenyl]ethoxy]quinazoline]",0
5,"CC(C)(C)c1ccc(CCCNc2ncnc3ccc(Cl)cc23)cc1 [Example 140, 6-chloro-N-(3-[4-(1,1-dimethylethyl)phenyl]propyl]-4-quinazoline]",0

# System: Twospotted spider mites (Tetranychus urticae Koch)
# Assay: Mite/insect screen, sprayed squash cotyledons (SM)
# Type: in vivo
# Conditions: Tetranychus urticae, percent mortality; spray rate 200 ppm; read-out: SM RESULTS %
# Outline: (§1)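 Compounds dissolved in acetone/alcohol with TOXIMUL R/S emulsifiers, diluted with water to test concentrations, and sprayed to runoff on both leaf surfaces at 10 psi, then dried 1 h. Excised treated squash leaves given southern armyworm larvae; aphid and spider mite tests on sprayed squash cotyledons. Percent mortality and phytotoxicity scored after standard exposure.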
row,Compound,mortality at 200 ppm [%]
1,"CC(C)(C)c1ccc(CCOc2ncnc3cc(Cl)ccc23)cc1 [Example 136, 7-chloro-4-[2-[4-(1,1-dimethylethyl)phenyl]ethoxy]quinazoline]",0
2,"c1ccc(Sc2cccc(CCOc3ncnc4ccccc34)c2)cc1 [Example 137, 4-[2-[3-(phenylthio)phenyl]ethoxy]quinazoline]",0
3,"CC(C)(C)c1ccc(CCCOc2ncnc3ccccc23)cc1 [Example 138, 4-[3-[4-(1,1-dimethylethyl)phenyl]propoxy]quinazoline]",0
4,"CC(C)(C)c1ccc(CCCNc2ncnc3ccc(Cl)cc23)cc1 [Example 140, 6-chloro-N-(3-[4-(1,1-dimethylethyl)phenyl]propyl]-4-quinazoline]",0

# Same assay, conditions: Tetranychus urticae, percent mortality; spray rate 400 ppm; read-out: SM RESULTS %
row,Compound,mortality at 400 ppm [%]
1,"CC(C)(C)c1ccc(CCOc2ncnc3cc(Cl)ccc23)cc1 [Example 136, 7-chloro-4-[2-[4-(1,1-dimethylethyl)phenyl]ethoxy]quinazoline]",0
2,"c1ccc(Sc2cccc(CCOc3ncnc4ccccc34)c2)cc1 [Example 137, 4-[2-[3-(phenylthio)phenyl]ethoxy]quinazoline]",0
3,"CC(C)(C)c1ccc(CCCOc2ncnc3ccccc23)cc1 [Example 138, 4-[3-[4-(1,1-dimethylethyl)phenyl]propoxy]quinazoline]",80
4,"Cc1cccc2c(OCCc3ccc(C(C)(C)C)cc3)ncnc12 [Example 139, 8-methyl-4-[2-[4-(1,1-dimethylethyl)phenyl]ethoxy]quinazoline]",100
5,"CC(C)(C)c1ccc(CCCNc2ncnc3ccc(Cl)cc23)cc1 [Example 140, 6-chloro-N-(3-[4-(1,1-dimethylethyl)phenyl]propyl]-4-quinazoline]",80

# System: melon aphids (Aphis gossypii Glover)
# Assay: Mite/insect screen, sprayed squash cotyledons (MA)
# Type: in vivo
# Conditions: Aphis gossypii, percent mortality; spray rate 200 ppm; read-out: MA RESULTS %
# Outline: as §1
row,Compound,mortality at 200 ppm [%]
1,"CC(C)(C)c1ccc(CCOc2ncnc3cc(Cl)ccc23)cc1 [Example 136, 7-chloro-4-[2-[4-(1,1-dimethylethyl)phenyl]ethoxy]quinazoline]",0
2,"c1ccc(Sc2cccc(CCOc3ncnc4ccccc34)c2)cc1 [Example 137, 4-[2-[3-(phenylthio)phenyl]ethoxy]quinazoline]",60
3,"CC(C)(C)c1ccc(CCCOc2ncnc3ccccc23)cc1 [Example 138, 4-[3-[4-(1,1-dimethylethyl)phenyl]propoxy]quinazoline]",30
4,"Cc1cccc2c(OCCc3ccc(C(C)(C)C)cc3)ncnc12 [Example 139, 8-methyl-4-[2-[4-(1,1-dimethylethyl)phenyl]ethoxy]quinazoline]",30
5,"CC(C)(C)c1ccc(CCCNc2ncnc3ccc(Cl)cc23)cc1 [Example 140, 6-chloro-N-(3-[4-(1,1-dimethylethyl)phenyl]propyl]-4-quinazoline]",0

# Same assay, conditions: Aphis gossypii, percent mortality; spray rate 400 ppm; read-out: MA RESULTS %
row,Compound,mortality at 400 ppm [%]
1,"CC(C)(C)c1ccc(CCOc2ncnc3cc(Cl)ccc23)cc1 [Example 136, 7-chloro-4-[2-[4-(1,1-dimethylethyl)phenyl]ethoxy]quinazoline]",0
2,"c1ccc(Sc2cccc(CCOc3ncnc4ccccc34)c2)cc1 [Example 137, 4-[2-[3-(phenylthio)phenyl]ethoxy]quinazoline]",0
3,"CC(C)(C)c1ccc(CCCOc2ncnc3ccccc23)cc1 [Example 138, 4-[3-[4-(1,1-dimethylethyl)phenyl]propoxy]quinazoline]",60
4,"Cc1cccc2c(OCCc3ccc(C(C)(C)C)cc3)ncnc12 [Example 139, 8-methyl-4-[2-[4-(1,1-dimethylethyl)phenyl]ethoxy]quinazoline]",0
5,"CC(C)(C)c1ccc(CCCNc2ncnc3ccc(Cl)cc23)cc1 [Example 140, 6-chloro-N-(3-[4-(1,1-dimethylethyl)phenyl]propyl]-4-quinazoline]",0
